The NIST ThermoML archive (doi:10.1016/j.jct.2010.01.014)

Conditions: Crystal, Calculated from knudsen effusion weight loss

O=C1c2ccccc2-c2ccccc21 [9(9H)-fluorenone]
Conditions	vapor or sublimation pressure [kPa]
300.8 K	1.21e-05
303.6 K	1.69e-05
307.9 K	2.79e-05
309.8 K	3.65e-05
313 K	5.1e-05
313.1 K	5.09e-05
315.1 K	6.16e-05
323 K	0.000139
323.1 K	0.000143
324.5 K	0.000159
324.7 K	0.000167
328.4 K	0.000246
328.6 K	0.000245
330.9 K	0.000311
331.1 K	0.000319
331.9 K	0.000345
336.5 K	0.000528
336.6 K	0.00054
337.8 K	0.000596
337.9 K	0.000599
342.7 K	0.000937
342.8 K	0.000952

O=C1c2ccccc2C(=O)c2ccccc21 [9,10(9H,10H)-anthracenedione]
Conditions	vapor or sublimation pressure [kPa]
346 K	4.49e-06
359.9 K	2.09e-05
360.9 K	2.2e-05
362.7 K	2.52e-05
367.4 K	4.1e-05
369.9 K	5.42e-05
377.6 K	0.000119
379.2 K	0.000144
380.1 K	0.000149
385.4 K	0.000267
385.8 K	0.000263
386.8 K	0.000305
392.7 K	0.000493
392.8 K	0.000494
393.4 K	0.000519
399.2 K	0.000872
399.9 K	0.000948

ON=C1c2ccccc2-c2ccccc21 [9-oximinofluorene]
Conditions	vapor or sublimation pressure [kPa]
374.5 K	0.000175
376.6 K	0.000198
378.5 K	0.000231
382.6 K	0.000302
383.2 K	0.000317
386.2 K	0.000385
387.9 K	0.000428
389.9 K	0.000474
393.8 K	0.000613
395.2 K	0.000671
398.6 K	0.000816

OC1c2ccccc2-c2ccccc21 [9H-fluoren-9-ol]
Conditions	vapor or sublimation pressure [kPa]
326.1 K	2.1e-05
327.5 K	2.44e-05
329.8 K	3.15e-05
331.3 K	3.74e-05
334.9 K	5.12e-05
340.9 K	0.000101
342.6 K	0.000115
343.6 K	0.000123
344.7 K	0.000144
346.1 K	0.000159
347.4 K	0.000186
351.2 K	0.000276
355.1 K	0.000402
358.7 K	0.00056
361.9 K	0.00074
366.1 K	0.00103

c1ccc2c(c1)[nH]c1cnccc12 [9H-pyrido[3,4-b]indole]
Conditions	vapor or sublimation pressure [kPa]
352.8 K	5.7e-06
363.8 K	1.74e-05
367.9 K	2.56e-05
368.1 K	2.72e-05
370.3 K	3.37e-05
371.4 K	4.16e-05
371.5 K	4.16e-05
374.1 K	5.03e-05
374.4 K	5.45e-05
378.2 K	7.53e-05
381.8 K	0.000103
382 K	0.000107
382.2 K	0.000108
385.4 K	0.000141
385.9 K	0.000155
389.2 K	0.000218
389.4 K	0.000229

c1ccc2c(c1)Oc1ccccc1S2 [phenoxathiin]
Conditions	vapor or sublimation pressure [kPa]
304.2 K	8.61e-05
308.7 K	0.000143
311.4 K	0.000209
311.5 K	0.000207
311.9 K	0.000217
318.2 K	0.000453
323 K	0.000771
324.5 K	0.000927

c1ccc2c(c1)Nc1ccccc1O2 [phenoxazine]
Conditions	vapor or sublimation pressure [kPa]
329.7 K	2.81e-05
336.7 K	5.94e-05
340.9 K	0.000102
344.9 K	0.000164
345.1 K	0.000164
346.9 K	0.000196
348.2 K	0.00022
352.9 K	0.000345
353.1 K	0.000363
356.7 K	0.000483
360.9 K	0.000748
364.5 K	0.00107
